From patent US8957062B2, “Substituted cyclopropyl compounds, compositions containing such compounds and methods of treatment” (Merck Sharp & Dohme Corp., priority 2011, dated 2015)
Where two headings read alike, the source gives them in different places.

Columns and labels:
human GPR119 = biological target: T1, human GPR119 (Homo sapiens, UniProt Q8TDV5); experiment: Measurement of GPR119 signaling (cAMP assay) in cells stably transfected with human GPR119; assay type: cell-based; conditions: cAMP stimulation, human GPR119, read-out: GPR119 Human EC50
T1 sequence (Q8TDV5 1-308 limits assumed): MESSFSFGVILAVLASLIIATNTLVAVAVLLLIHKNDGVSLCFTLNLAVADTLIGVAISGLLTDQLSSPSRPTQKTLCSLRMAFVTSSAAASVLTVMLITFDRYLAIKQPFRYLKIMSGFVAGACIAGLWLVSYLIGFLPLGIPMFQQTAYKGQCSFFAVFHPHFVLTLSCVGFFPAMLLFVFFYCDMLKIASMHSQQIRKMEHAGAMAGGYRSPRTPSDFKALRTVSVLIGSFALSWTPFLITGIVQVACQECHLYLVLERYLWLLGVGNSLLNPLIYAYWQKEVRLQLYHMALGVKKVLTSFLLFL

Structure (SMILES)	melting point	EC50 (human GPR119; stated in the example text)	EC50 (human GPR119; table column)
CC1(OC(=O)N2CCC([C@H]3C[C@H]3CCOc3ccc(S(=O)(=O)C4CC4)c(F)c3)CC2)CC1 [Example 43]			1 nM
O=C(CC1CCC1)N1CCC([C@H]2C[C@H]2CCOc2ccc(-n3cnnn3)cc2)CC1 [Example 81]			15 nM
COCc1noc(N2CCC([C@H]3C[C@H]3CCOc3cc(F)c(CC(=O)N4CC(F)C4)c(F)c3)CC2)n1 [Example 116, 4-[(1R,2S)-2-(2-{3,5-difluoro-4-[2-(3-fluoroazetidin-1-yl)-2-oxoethyl]phenoxy}ethyl)cyclopropyl]-1-[3-(methoxymethyl)-1,2,4-oxadiazol-5-yl]piperidine]		1.4 nM	
CS(=O)(=O)c1ccc(OCC[C@@H]2C[C@@H]2C2CCN(c3noc(CC4CC4)n3)CC2)nc1 [Example 243]			9.8 nM
CC(C)OC(=O)N1CCC([C@H]2C[C@H]2CCOc2cc(F)c(C(=O)C3CC3)c(F)c2)CC1 [Example 51]		0.8 nM	
CS(=O)(=O)c1ccc(OCC[C@@H]2C[C@@H]2C2CCN(c3nnc(C4CCC4)o3)CC2)nc1 [Example 248]			39 nM

Results, then the molecule that gave them:

melting point	EC50 (human GPR119; stated in the example text)	EC50 (human GPR119; table column)	Structure (SMILES)
68 to 70 °C	7 nM		COCc1noc(N2CCC([C@H]3C[C@H]3CCOc3ccc(S(C)(=O)=O)cn3)CC2)n1 [Example 208, 3-(methoxymethyl)-5-(4-((1R,2S)-2-(2-(5-(methylsulfonyl)pyridin-2-yloxy)ethyl)cyclopropyl)piperidin-1-yl)-1,2,4-oxadiazole]
		4.9 nM	CC(C)c1noc(N2CCC([C@H]3C[C@H]3CCOc3ccc(CC(=O)N4CCn5ccnc5C4)c(F)c3)CC2)n1 [Example 180]
	2.5 nM		CC(C)c1noc(N2CCC([C@H]3C[C@H]3CCOc3ccc(Cc4nnco4)c(F)c3)CC2)n1 [Example 256, 4-((1R,2S)-2-{2-[3-fluoro-4-(1,3,4-oxadiazol-2-ylmethyl)phenoxy]ethyl}cyclopropyl)-1-(3-isopropyl-1,2,4-oxadiazol-5-yl)piperidine]
		3 nM	CC(C)c1noc(N2CCC([C@H]3C[C@H]3CCOc3ccc(CC(=O)N4CC(n5cccn5)C4)c(F)c3)CC2)n1 [Example 187]
		5.9 nM	COCc1noc(N2CCC([C@H]3C[C@H]3CCOc3ccc(CC(=O)N(C)C)c(F)c3)CC2)n1 [Example 201]
		1.2 nM	COCc1noc(N2CCC([C@H]3C[C@H]3CCOc3ccc(CC(=O)N4CC(F)(F)C4)c(F)c3)CC2)n1 [Example 200]
		1.8 nM	CCN(CC)C(=O)Cc1ccc(OCC[C@@H]2C[C@@H]2C2CCN(c3nc(C(C)C)no3)CC2)cc1F [Example 144]
	11.8 nM		CC(C)c1noc(N2CCC([C@H]3C[C@H]3CCOc3ccc(-n4cnnn4)cc3)CC2)n1 [Example 98, 5-(4-((1R,2S)-2-(2-(4-(1H-tetrazol-1-yl)phenoxy)ethyl)cyclopropyl)piperidin-1-yl)-3-isopropyl-1,2,4-oxadiazole]
